Source: patent US10420751B2, “Methods of treating inflammatory bowel disease with AMD3100 and tacrolimus” (priority 2009, dated 2019)
Read-outs that look alike come from different tables or passages of the source.

Columns and labels:
CXCR4 chomokin receptor = CXCR4 chomokin receptor (Homo sapiens, UniProt P61073); settings: Peled et al.; read-out: IC50, binds and inhibits CXCR4; cited from earlier work
[1] = tested on: skin xenograft (C57/B6 mice into Lewis rats); assay: Skin xenograft survival, mouse into rat; type: in vivo; settings: FK 0.1 mg/kg and/or AMD 1 mg/kg
[2] = tested on: CD34+, c-Kit+, Thy-1+ and Sca1+ cells in peripheral blood; settings: after liver transplantation, compared to control animals, AMD3100 1 mg/kg/day s.c.
Experimental: Single-cell suspensions (5×10^5) of peripheral blood monocytes were analyzed for CD34, CXCR4, c-Kit, Thy-1, and Sea-1 expression. Nonspecific antibody binding was blocked with goat and rat serum (Sigma) for 30 minutes.

[3] = tested on: small liver allograft (DA into Lewis rats); assay: Small liver transplantation, acute rejection model: survival; settings: for recipient survival / liver allograft acceptance: small liver DA into Lewis, FK-506 0.1 mg/kg/day and/or AMD3100 1 mg/kg/day s.c. day 0,1,2,3,7, controls rejected within 12 days; for survival of one of five recipients: small liver, low dose FK-506 0.1 mg/kg/day alone
Experimental: Orthotopic liver transplantation (OLT) was performed under isoflurane (Abbott laboratories, North Chicago, Ill.) inhalation anesthesia according to a method modified from previously described. Small liver transplantation consisted of removal of the left lateral lobe, the left portion of the median lobe, and the anterior and posterior caudate lobes. This reduced the liver mass by about 50%. The livers were flushed in situ with 10 ml cold saline via the portal vein, explanted and immersed in cold saline solution. The host liver was excised by ligation and division of the right adrenal and lumbar veins. The hepatic artery was ligated and divided. The bile duct was cannulated by insertion of a tube 2 mm in length (outer diameter, 1.2 mm) via choledocotomy and secured with a circumferential 8-0 silk suture. […] The suprahepatic vena cava was pulled down using a cotton tape passed around the host liver and cross-clamped with a baby Statinksy clamp. The vessels were divided and liver was removed. The donor suprahepatic vena cava was anstomosed end-to-end with the host suprahepatic vena cava with running 8-0 prolene. The portal vein and infra hepatic vena cava were anastomosed using the cuff technique described previously. The common bile duct of the donor was cannulated with the small tube residing in the host bile duct and tied in place. The hepatic artery was not reconstructed.
Some of the animals were sacrificed at day 3, 7 and 10 after transplantation and liver tissue, spleen and peripheral blood were collected.
To test this hypothesis, liver transplants from dark agouti (DA) rats into Lewis rats, i.e. the rejection model were performed. Recipient rats were treated with a hematopoietic stem cell mobilizer (plerixafor) and/or low dose immunosuppressant (tacrolimus). Transplanted rats were divided into four groups: 1) a control group treated with saline), 2) treatment with low dose immunosuppressant (tacrolimus, 0.1 mg/kg/day), 3) stem cell mobilizer (plerixafor (AMD3100), 1 mg/kg/day) alone, or 4) a combination of low dose tacrolimus and plerixafor.
In small liver transplantation rats, plerixafor and/or tacrolimus were injected subcutaneously immediately after reperfusion and on days 1, 2, 3 and 7 following transplantation. In whole liver transplantation rats, plerixafor and/or tacrolimus were injected subcutaneously immediately after reperfusion and on days 1, 2, 3, 7, 10 and 15 following transplantation. Animals from each group were sacrificed on post-op days 3, 7 and 10 and liver tissue, spleen and peripheral blood were collected.

[4] = tested on: kidney allograft (DA to Lewis); assay: Orthotopic kidney transplantation, acute rejection model: survival; type: in vivo, rat; settings: FK 0.05 mg/kg and/or AMD 1 mg/kg s.c.; controls rejected within 10 days
Experimental: Specifically, the DA to Lewis model of acute rejection was studied. Briefly, donor kidneys obtained from male DA rats were flushed with 10 ml cold saline and were stored at 4° C. while the recipient to be prepared. Total cold ischemic time was no longer than 40 minutes. Lewis male recipients were transplanted following left native nephrectomy. The donor renal artery, vein and ureter were anastomosed to the recipient renal artery, vein and ureter. The anastomosis was completed using 10-0 silk sutures. The right native kidney was removed before closing the abdomen.
AMD3100 were injected subcutaneously immediately after reperfusion (day 0) and day 2, 4 and 6 following kidney transplantation. […] Treatments were repeated in combination treated group at 1, 2 and 3 months after transplantation. Some of animals were sacrificed at day 7 and 30 after transplantation and kidney tissue, spleen and peripheral blood were collected.

[5] = tested on: whole liver allograft (DA into Lewis rats); assay: Whole liver transplantation, rejection model: survival; settings: s.c. day 0,1,2,3,7,10,15, controls rejected within twelve days
Experimental: In whole liver transplantation rats, plerixafor and/or tacrolimus were injected subcutaneously immediately after reperfusion and on days 1, 2, 3, 7, 10 and 15 following transplantation.

[6] = tested on: skin allograft (DA into Lewis); assay: Skin allograft survival; settings: FK 0.1 mg/kg and/or AMD 1 mg/kg; controls rejected within 7 days
Experimental: DA rats or C57/B6 mice were used as skin donors and GFP transgenic Lewis rats were used as recipients. A graft bed (2.5×3 cm) was prepared on the back of a recipient rat; special care was given to preserving the panniculus carnosus. A 2.5×3 cm^2 graft, which had been prepared from the body trunk of a donor, was transplanted with interrupted sutures of 5-0 silk. The graft was covered with a protective tape and the first inspection was conducted 2 days after skin grafting and was followed by daily inspection. The rejection was defined as the day when the skin graft developed a red-brown color and hard consistency.
FK506 were injected subcutaneously every day following transplantation.

[7] = tested on: cell migration stimulated by CXCL12; settings: Peled et al.; cited from earlier work
[8] = tested on: c-Kit+, CD133+, Lin− Thy1+c-Kit+CD133+ cells in peripheral blood; assay: Mobilization of stem cells into peripheral blood (CBC and flow cytometry); type: in vivo, rat; settings: 3 hours after injection
Experimental: Single-cell suspensions (5×10^5) of peripheral blood monocytes were analyzed for lineage negative CD34, CD133, Thy1, and c-Kit expression. Nonspecific antibody binding was blocked with goat and rat serum (Sigma) for 30 minutes. Peripheral blood cells were isolated from animals at 3 hours after injection with AMD and/or FK. Complete blood count (CBC) was measured and stem cell markers were quantified by flow cytometry. The absolute number of stem cells was calculated as WBC (-thous./μL)×% of stem cells.

[9] = tested on: liver allografts (DA into GFP-Lewis rats); assay: Histology (H&E), GFP microscopy and Xenogen imaging of small liver allografts; type: in vivo, rat; settings: liver allografts 7 days after transplantation, versus control group
Experimental: Transplanted rats were divided by four groups: (1) control group (treated with same volume of saline); (2) low dose of immunosuppressant (FK-506, 0.1 mg/kg/day); (3) stem cell mobilizer (AMD3100, 1 mg/kg/day); and (4) combination of low dose FK-506 and AMD3100. AMD3100 and/or FK-506 were injected subcutaneously immediately after reperfusion and day 1, 2, 3 and 7 following liver transplantation (FIG. 1). Some of the animals were sacrificed at day 3, 7 and 10 after transplantation and liver tissue, spleen and peripheral blood were collected.
Histological changes in liver tissue sections were evaluated by H&E staining. Recipient-derived GFP positive cells in liver tissue sections were analyzed by confocal fluorescence microscopy.
GFP whole-organ fluorescence was measured using the Xenogen system.

CXCR4 chomokin receptor, sequence (P61073 whole entry): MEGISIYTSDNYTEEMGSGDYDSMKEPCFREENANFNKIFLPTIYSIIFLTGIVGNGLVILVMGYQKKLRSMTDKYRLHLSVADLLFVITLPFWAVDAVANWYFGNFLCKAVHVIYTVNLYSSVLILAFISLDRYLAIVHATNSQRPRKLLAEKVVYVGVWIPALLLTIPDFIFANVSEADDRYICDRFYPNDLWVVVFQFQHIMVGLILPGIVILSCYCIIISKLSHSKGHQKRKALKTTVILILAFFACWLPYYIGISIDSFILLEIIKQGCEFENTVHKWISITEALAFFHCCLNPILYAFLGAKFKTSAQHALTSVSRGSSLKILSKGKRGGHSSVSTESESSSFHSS

| Compound | IC50 (CXCR4 chomokin receptor) [nM] | skin xenograft survival [1] | percentage of CD34+, c-Kit+, Thy-1+ and Sca1+ cells in peripheral blood ([2]; listed as AMD) | percentage of CD34+, c-Kit+, Thy-1+ and Sca1+ cells in peripheral blood ([2]; listed as plerixafor) | recipient survival / liver allograft acceptance ([3]; listed as AMD) | recipient survival / liver allograft acceptance ([3]; listed as plerixafor) | recipient survival / kidney allograft acceptance [4] | recipient survival [5] | skin allograft survival / acceptance [6] | IC50 [7] [nM] | absolute number of c-Kit+, CD133+ or Lin− and Thy1+c-Kit+CD133+ triple positive cells in peripheral blood ([8]; compared to saline or G-CSF treated animals) | mononuclear/inflammatory cellular infiltration in portal areas (H&E) ([9]; listed as AMD) | mononuclear/inflammatory cellular infiltration in portal areas (H&E) ([9]; listed as plerixafor) | recipient survival / liver allograft acceptance ([3]; listed as FK-506) | recipient survival / liver allograft acceptance ([3]; listed as tacrolimus) | survival of one of five recipients [3] [months] | survival of one of five recipients ([3]; 0.1 mg/kg/day) | c-Kit+ and CD133+ cells in peripheral blood ([8]; low-dose FK (0.1 mg/kg)) | mononuclear/inflammatory cellular infiltration in portal areas (H&E) [9] | mononuclear/inflammatory cellular infiltration in portal areas (H&E) ([9]; listed as FK-506) |
| --- | --- | --- | --- | --- | --- | --- | --- | --- | --- | --- | --- | --- | --- | --- | --- | --- | --- | --- | --- | --- |
| 4F-benzoyl-TN14003 [BKT140] | ~1 |  |  |  |  |  |  |  |  |  |  |  |  |  |  |  |  |  |  |  |
| c1cc(CN2CCCNCCNCCCNCC2)ccc1CN1CCCNCCNCCCNCC1 [AMD3100, 1,1′-[1,4-phenylenebis(methylene)]bis-1,4,8,11-tetraazacyclo-tetradecane] |  | did not prolong the xenograft survival | significantly increase | significantly increased | did not significantly prolong the recipient survival | did not significantly prolong recipient survival | did not prolong the recipient survival | did not significantly prolong recipient survival | did not significantly prolong the allograft survival | 51 ± 17 | significantly increased | the number of infiltrating cells were less | the number of infiltrating cells was reduced |  |  |  |  |  |  |  |
| C=CC[C@@H]1/C=C(\C)C[C@H](C)C[C@H](OC)[C@H]2O[C@@](O)(C(=O)C(=O)N3CCCC[C@H]3C(=O)O[C@H](/C(C)=C/[C@@H]3CC[C@@H](O)[C@H](OC)C3)[C@H](C)[C@@H](O)CC1=O)[C@H](C)C[C@@H]2OC [Tacrolimus] |  | did not prolong the xenograft survival |  |  |  |  | did not prolong the recipient survival | did not significantly prolong recipient survival | did not significantly prolong the allograft survival |  |  |  |  | did not significantly prolong the recipient survival | did not significantly prolong recipient survival | 4 | more than 1 months | significantly increases | the number of infiltrating cells was reduced | the number of infiltrating cells were less |
